{"source": "patent US5175153A", "about": "“Substituted alpha-amino acids having pharmaceutical activity” (Warner-Lambert Company, priority 1988, dated 1992)", "key": {"[1]": {"target": "NMDA receptor", "assay": "NMDA receptor binding assay using [^3 H]CPP as antagonist ligand", "conditions": "for IC50: [^3 H]CPP", "description": "The activity of the compounds of the formula I is shown in vitro in an NMDA receptor binding assay based on the use of [^3 H]CPP as antagonist ligand in a manner essentially as set out by B. E. Murphy et al in J. Pharm."}, "[2]": {"tested_on": "NMDA-Induced Subconvulsant Behavior", "assay": "Inhibitory effects in NMDA-induced subconvulsant behavior (tail biting) in Fisher rats", "format": "in vivo", "conditions": "for % Responders: 30 min before 50 mg/kg IV NMDA; for Latency (min ± S.E.) / % I: 30 min before NMDA; for Latency (min ± S.E.): 60 minutes=maximum; for % I: [1 - % test responders/% control responders] × 100", "experimental": "In a modification of those methods, subconvulsant tail biting was induced in Fisher rats by intravenous injection of 50 mg/kg NMDA. The incidence (%) and response time (60 minutes=maximum) of control and drug treated rats (I.P., 30 minutes before NMDA) were compared. The inhibitory effects of 2-amino-7-phosphonoheptanoic acid and Example VIII are shown in Table 2 (% responders and time (latency in minutes)).\n*Rats were dosed IP, 2 mls/kg 30 min before NMDA.\n**% I = [1 - % test responders/% control responders] × 100."}, "[3]": {"tested_on": "NMDA-induced seizure and death", "assay": "Inhibition of NMDA-induced seizures and death in mice", "format": "in vivo, male CF-1 mice", "conditions": "Mus musculus", "experimental": "Intraperitoneal injection of N-methyl-D-aspartic acid (NMDA) has been previously reported to induce clonic seizures in C57BL/6J mice (Bernard, P.S. et al, Models of N-methyl-D -aspartate antagonism: A comparison of 2-amino-7-phosphonoheptanoic acid with muscle relaxant drugs, 15th Annual Meeting, International Society for Neuroscience, 1985). In a modified version of the above protocol, male CF-1 mice received an intravenous injection of 25 mg/kg NMDA--behind the lateral aspect of the right eye. This induced a rapidly onsetting seizure followed shortly thereafter by death. […] ED50 were determined for inhibition of seizures and death through comparison of drug treatment groups (n=10) with their respective vehicle controls (n=10)."}, "[4]": {"assay": "Observation of drug effects or normal behavior in rats dosed with NMDA"}, "[5]": {"conditions": "0.5 h, IV, five minutes prior to 25 mg/kg IV NMDA, survivors at thirty minutes, read-out: Inhibition of Death ED50"}, "[6]": {"conditions": "IV, five minutes prior to 25 mg/kg IV NMDA, read-out: Inhibition of Seizures ED50"}}, "note": "Where two headings read alike, the source gives them in different places."}
{"smiles": "NC(C(=O)O)c1cccc(P(=O)(O)O)c1", "note": "(racemic) [Example VI A, (±)-α-Amino-3-Phosphonobenzeneacetic Acid]", "values": [{"measurement": "IC50", "setting": "[1]", "value": 17.9, "unit": "µM"}]}
{"smiles": "NC(C(=O)O)c1ccc(CP(=O)(O)O)cc1", "note": "(racemic) [Example VIII, (±)-α-Amino-4-(Phosphonomethyl)Benzeneacetic Acid]", "values": [{"measurement": "% Responders", "setting": "[2]; 25 mg/kg IP, phosphate buffer control 9/10", "value": "2/9"}, {"measurement": "Latency (min ± S.E.)", "setting": "[2]; 25 mg/kg IP, p < 0.01, phosphate buffer 24.8 ± 4.9", "value": "51.6 ± 5.6", "unit": "min"}, {"measurement": "% I", "setting": "[2]; 25 mg/kg IP", "value": 77.8, "unit": "%"}, {"measurement": "% Responders", "setting": "[2]; 37 mg/kg IP, phosphate buffer control 9/10", "value": "1/10"}, {"measurement": "Latency (min ± S.E.)", "setting": "[2]; 37 mg/kg IP, p < 0.001, phosphate buffer 24.8 ± 4.9", "value": "55.5 ± 4.5", "unit": "min"}, {"measurement": "% I", "setting": "[2]; 37 mg/kg IP", "value": 88.9, "unit": "%"}, {"measurement": "inhibitory effects compared with 7-APH", "setting": "[2]; in words, Table 2", "value": "inhibitory effects similar in potency and efficacy to 7-APH"}, {"measurement": "IC50", "setting": "[1]", "value": 0.99, "unit": "µM"}, {"measurement": "most active of the most preferred compounds", "setting": "[1]; in words, test not given", "value": "most active compound"}, {"measurement": "ED50", "setting": "[3]; [5]", "value": 7.6, "unit": "mg/kg"}, {"measurement": "ED50", "setting": "[3]; [6]", "value": "> 30", "unit": "mg/kg"}, {"measurement": "drug induced behavioral effects", "setting": "[4]; 37 mg/kg and 25 mg/kg IP", "value": "no drug induced behavioral effects"}]}
{"smiles": "NC(CCCCCP(=O)(O)O)C(=O)O", "note": "(centres unmarked) [APH, 2-amino-7-phosphonoheptanoic acid, reference compound]", "values": [{"measurement": "% Responders", "setting": "[2]; 10 mg/kg IP, saline control 9/10", "value": "6/10"}, {"measurement": "Latency (min ± S.E.)", "setting": "[2]; 10 mg/kg IP, p < 0.001, saline 15.8 ± 5.3", "value": "43.3 ± 5.8", "unit": "min"}, {"measurement": "% I", "setting": "[2]; 10 mg/kg IP", "value": 33.3, "unit": "%"}, {"measurement": "% Responders", "setting": "[2]; 30 mg/kg IP, saline control 9/11", "value": "1/10"}, {"measurement": "Latency (min ± S.E.)", "setting": "[2]; 30 mg/kg IP, p < 0.01, saline 33.1 ± 5.8", "value": "59.0 ± 1.0", "unit": "min"}, {"measurement": "% I", "setting": "[2]; 30 mg/kg IP", "value": 87.8, "unit": "%"}, {"measurement": "IC50", "setting": "[1]", "value": 0.8, "unit": "µM"}, {"measurement": "ED50", "setting": "[3]; iv, 0.5 h, read-out: Inhibition of Death ED50", "value": 30, "unit": "mg/kg"}, {"measurement": "ED50", "setting": "[3]; iv, read-out: Inhibition of Seizures ED50", "value": "> 30", "unit": "mg/kg"}, {"measurement": "drug induced behavioral effects", "setting": "[4]; 10 mg/kg IP", "value": "no drug induced behavioral effects"}, {"measurement": "ataxia", "setting": "[4]; 30 mg/kg IP", "value": "no ataxia"}, {"measurement": "exploratory behavior", "setting": "[4]; 30 mg/kg IP, versus controls", "value": "slightly less exploratory than controls"}]}
{"smiles": "NC(C(=O)O)c1cccc(CP(=O)(O)O)c1", "note": "(stereo not drawn) [Example II, Benzeneacetic Acid, α-Amino-3-(Phosphonomethyl)-]", "values": [{"measurement": "IC50", "setting": "[1]", "value": 11.8, "unit": "µM"}]}
{"smiles": "NC(Cc1cccc(CP(=O)(O)O)c1)C(=O)O", "note": "(centres unmarked) [Example III]", "values": [{"measurement": "IC50", "setting": "[1]", "value": 3.56, "unit": "µM"}, {"measurement": "ED50", "setting": "[3]; [5]", "value": 37, "unit": "mg/kg"}, {"measurement": "ED50", "setting": "[3]; [6]", "value": "~60", "unit": "mg/kg"}]}
